The results in this text go back to PubChem BioAssay (NCI).

Common to all, as to experiment: growth of human tumour cells (NCI), 48 h
Assay [1] has as its system KM12 colon.
The test system of assay [2] is IGROV1 ovarian.
The subject of assay [3] is SK-MEL-28 melanoma.
Assay [4] deals with OVCAR-5 ovarian.
Assay [5] has as its system PC-3 prostate.
The subject of assay [6] is SF-539 CNS.
The test system of assay [7] is A549 NSCLC.
Assay [8] has as its system SK-OV-3 ovarian.
Assay [9] concerns UACC-257 melanoma.
For assay [10], the system named is HCT-116 colon.
The test system of assay [11] is ACHN renal.
Assay [12] relates to NCI-H522 lung.
Assay [13] deals with HS 578T breast.
For assay [14], the system named is MALME-3M melanoma.
Assay [15] deals with MOLT-4 leukemia.
In assay [16] the test system is HOP-92 NSCLC.

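Cultured in 96-well plates, cells were exposed to test compound for 48 hours across five concentrations. TGI marks complete inhibition of growth.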

With `Cc1ccc(SCC(OCn2cnc3c(Cl)nc(N)nc32)[C@H](C)F)cc1` (stereo partly drawn), the TGI in assay [1], in assay [2], in assay [3], in [4], in [5] and in assay [6] was more than 100 µM in each case. For the same molecule, the TGI was more than 100 µM in assay [7]; more than 100 µM in [8]; more than 100 µM in [9]; more than 100 µM in [10]; more than 100 µM in assay [11]; 29.4 µM in assay [12]. Besides, the TGI in assay [13], in [14], in [15] and in assay [16] was more than 100 µM in each case.

With `CCC(=O)Nc1ccc(NCC(=O)Nc2ccc(OC)cc2)cc1`, the TGI in [1] was more than 100 µM; in assay [2], 78 µM; in assay [3] it was more than 100 µM; in assay [4], 37.2 µM; in [5] it was 89.9 µM; in [6], 38.6 µM. The TGI is more than 100 µM in assay [7]; 95.3 µM in assay [8]; 64.2 µM in [9]; 80.3 µM in [10]; more than 100 µM in assay [11]; 29.5 µM in assay [12]. Also, the TGI in [13] was more than 100 µM; in assay [14], 49.5 µM; in assay [15], more than 100 µM; in [16], 66.3 µM.

With `CC(=O)NC1(C)C(C)C2CC1C(C)C2(C)C` (stereo not drawn), the TGI in assay [1], in [2], in assay [3], in assay [4], in assay [5] and in assay [6] was more than 100 µM in each case. In addition, the TGI in [7], in assay [8], in assay [9], in assay [10], in assay [11] and in [12] was more than 100 µM in each case. Further, the TGI in [13], in assay [14], in assay [15] and in assay [16] was more than 100 µM throughout.

Turning to `O=C(Nc1ccc2cc3ccccc3cc2c1)c1cc2c(cc1Cl)Sc1nccn1S2(=O)=O`, the TGI in assay [1] was more than 100 µM; in assay [2], more than 100 µM; in assay [3] it was more than 100 µM; in assay [4], 93.5 µM; in [5], 52.6 µM; in assay [6] it was 33.8 µM. The TGI in [7], in assay [8], in assay [9], in assay [10], in [11] and in assay [12] was more than 100 µM each time. Further, the TGI in assay [13], in assay [14], in assay [15] and in assay [16] was more than 100 µM each time.

For the molecule `COC(=O)CNC(=O)CCC(C)[C@H]1CCC2C3C(C[C@H](OC(C)=O)[C@@]21C)[C@@]1(C)CCC2(C[C@H]1C[C@H]3OC(C)=O)OOC1(CCCCC1)OO2` (stereo partly drawn), the TGI in assay [1] turned out to be 3.64 µM; in [2], 2.98 µM; in assay [3], 22.1 µM; in assay [4], 6.62 µM; in assay [5], 6.29 µM; in assay [6], 3.75 µM. The TGI in [7] was determined as 3.36 µM; in assay [8], 25 µM; in assay [9], 20.1 µM; in assay [10], 6.25 µM; in [11], 3.85 µM; in assay [12], 3.14 µM. For the same molecule, the TGI in assay [13] stood at 6.7 µM; in assay [14] it was 6.22 µM; in [15], 11.9 µM; in assay [16] it was 2.72 µM.

For the molecule `N#Cc1c(-c2ccccc2)cc(Nc2ccc(Cl)cc2)n2c1nc1ccccc12`, the TGI in assay [1] is more than 65.5 µM; in assay [2], more than 100 µM; in assay [3], more than 100 µM; in assay [4], more than 50.9 µM; in [5] it was more than 48 µM; in [6], more than 49.5 µM. Also, the TGI in assay [7] is more than 40.1 µM; in assay [8] it was more than 30.4 µM; in assay [9] it was more than 28.8 µM; in assay [10], more than 31.7 µM; in assay [11] it was more than 100 µM; in assay [12] it was 11.6 µM. Further, the TGI was 20.2 µM in [13], more than 100 µM in assay [14], 9.5 µM in [15] and 4.63 µM in assay [16].

Regarding `O=P1(Cc2ccccc2)c2ccccc2-c2ccccc21`, the TGI in [1] is 10.3 µM; in [2] it was 19.3 µM; in assay [3] it was 24.6 µM; in [4], 54.7 µM; in assay [5], more than 100 µM; in assay [6], 39.5 µM. Moreover, the TGI is more than 94.6 µM in assay [7]; more than 100 µM in assay [8]; 16 µM in assay [9]; 50.9 µM in assay [10]; 52.1 µM in assay [11]; 14.1 µM in [12]. Moreover, the TGI in assay [13] is more than 72 µM; in [14], 12.7 µM; in assay [15], 30.5 µM; in [16], 6.99 µM.

Turning to `COc1cc(S(=O)(=O)Nc2ccc(-c3csc(N4C(=O)C(Cl)C4c4cccs4)n3)cc2)ccc1Cl` (stereo not drawn), the TGI in assay [1], in assay [2], in assay [3], in [4], in assay [5] and in assay [6] was more than 100 µM each time. The TGI in [7] is more than 100 µM; in assay [8], more than 100 µM; in [9] it was more than 100 µM; in [10] it was more than 100 µM; in assay [11], more than 100 µM; in assay [12], 30.6 µM. Also, the TGI in assay [13] was more than 100 µM; in assay [14], more than 100 µM; in assay [15], more than 100 µM; in [16] it was 45.5 µM.
